Key:
Type in all cases: in vivo
[1] = test system: tropical sod webworms; experiment: Example 29: survival of tropical sod webworm larvae
Method: (§1) • 1) Larvae were obtained from Benzon Research Inc. • 2) 5 larvae/container and 3 containers=1 replication • 3) Treatments=1) Control • 2) 2-pack formulation at 5% dilution • 3) Cyfluthrin (insecticide), Al=0.75%, 3 fl oz/gal H2O (22 mL/L) • 4) Container=760 ml plastic bowl with lid containing moist filter paper on bottom and grass clippings • 5) St. Augustinegrass clippings dipped into respective fungicide treatment, drained to dry and put into container • 6) Hold 4 days at 25° C. and measure survival • 7) 7 replications of small larvae (2-10 mm) tested • 8) 6 replications of medium larvae (11-20 mm) tested • 9) 6 replications of large larvae (21-30 mm) tested • 10) Statistical analysis=Least Significant Difference (LSD) test Results:
Similar testing was conducted to determine the efficacy of embodiments of the 2-pack formulation to kill all sizes larvae (small, medium and large) of tropical sod webworms.

[2] = test system: fall armyworms (Spodoptera frugiperda); experiment: Example 29: survival of fall armyworm larvae on treated grass clippings; conditions: 5 larvae/container, 4 days at 25° C.
Method: The efficacy of an embodiment of the 2-pack formulation against different larval stages of fall armyworms (Spodoptera frugiperda) was determined under laboratory conditions. Embodiments of the invention were compared to a conventional pesticide Cyfluthrin.
as §1, with “Results: […]” for “Results:”

[3] = Synergy of the formulations when mixed with conventional chemical fungicides; conditions: contact fungicide

SMILES	Mean survival, Large larvae ([1]; Large sod webworm larvae)	Mean survival, Medium larvae ([1]; Medium sod webworm larvae)	Mean survival, Small larvae ([1]; Small sod webworm larvae)	Mean survival, Large larvae ([2]; large larvae (21-30 mm))	Mean survival, Medium larvae ([2]; medium larvae (11-20 mm))	Mean survival, Small larvae ([2]; small larvae (2-10 mm))	synergistic effect when mixed with embodiments of the invention [3]
CC1(C)C(C=C(Cl)Cl)C1C(=O)OC(C#N)c1ccc(F)c(Oc2ccccc2)c1 (stereo not shown) [Cyfluthrin]	0.3 B	0 B	0 B	0 B	0 B	0 B	
N#Cc1c(Cl)c(Cl)c(Cl)c(C#N)c1Cl [chlorothalonil]							synergistic effect was not observed

Reference: patent publication US9485988B2, “Turfgrass fungicide formulation with pigment” (Suncor Energy Inc., priority 2008, dated 2016)
